Assay results as given in patent US8916607B2, “Use of piperphentonamine or salts thereof in manufacture of medicaments for treating brain diseases” (Guangzhou Municipal Zhongwei Biotechnology Limited Company, priority 2009, dated 2014).
Marks after values point to notes of the source that are not given here.

Tests used:
[1] = test system: cultured cerebral neurons; test: NMDA induces neuron injury in primary cultured neurons; type: cell-based, rat; conditions: 12 h; for mortality: NMDA 50 mmol/L
[2] = test system: cerebral edema of mice caused by closed cerebral trauma; test: closed cerebral trauma model of mice, brain water content; type: in vivo, Kunming mice; conditions: brain taken after 24 h
Protocol: There were 10 mice in each group.
The closed cerebral trauma model of mice being established after fasting for 16 hours, administering intravenously to each group, striping and taking the brain of mouse after 24 hours, weighing the wet weight, and drying at 70° C. for 24 hours, then weighing the dry weight, and calculating brainwater content; the brain water content which is higher than normal values indicates the cerebral edema.
The grouping method, administer method and model preparation were referred to example 2.

[3] = test system: learning and memory dysfunction caused by cerebral ischemia reperfusion; test: platform-diving experiment in dementia model of mice caused by ischemia reperfusion; type: in vivo, Kunming mice; conditions: for memory achievement Error times / Learning achievement Error times: in 5 min; for memory achievement Error times: test-retest period; for Learning achievement Error times: training period
Protocol: The animals were randomly divided into five groups: sham operation group, model group, piperphentonamine hydrochloride 1 mg/kg group, 2 mg/kg group, 4 mg/kg group. There were 10 mice in each group.
After the mice were fasted for 16 hours, we established the dementia model of mice caused by ischemia reperfusion. The preparatory steps were proceeded as follows: anesthetizing mouse by sodium pentobarbital (60 mg/kg, ip), supinely immobilizing on a board, incising on the midmost of neck, isolating bilateral common carotid artery, and threading with zero-size silk thread. Afterwards, operation steps were proceeded as follows: blocking the blood flow of bilateral common carotid artery for 10 min, then resuming the blood flow for 10 min, repeating the blocking/resuming steps for 3 times, and suturing the skin. The mice were put in normal feeding conditions. Bilateral common carotid artery is only isolated for sham operation group.
After ischemia reperfusion for 10 min, the drugs are injected on tail vein, after ischemia reperfusion for 24 h, administering for the second time. Carrying on the platform-diving experiment after administering for half an hour. The mice under test are put into the platform-diving instrument, adapting the environment for 3 min, and then the bottom plate being electrified, observing the time when the mouse jump onto the high platform (reaction time) and the times which the mouse jump down from the high platform and are shocked by electricity in 5 min (the number of errors in the training period). After 24 h, administering again, then carry on the second platform-diving experiment to measure the function of obtaining memory. Putting the mouse on the platform of experimental instrument, electrifying the bottom plate at the same time, recording the time when the mouse jump down from the high platform (latency) and the times which shock by electricity in 5 min (the times of error in test-retest period).

[4] = test system: infective brain edema of rats (pertussis bacteria liquid); test: infective cerebral edema by pertussis bacteria liquid: brain water, sodium and potassium ion content; type: in vivo, SD rats; design: Na^+ / K^+: unit not given here; conditions: pretreatment 0.5 mg/kg iv daily, two days; 4 h after bacteria liquid
[5] = test system: infective brain edema of rats (pertussis bacteria liquid); test: infective cerebral edema: IL-1β, TNF-α (ELISA) and NO (Griess) in cerebral tissue; type: in vivo, SD rats; conditions: rat cerebral tissue, 4 h
Protocol: Determine the content of IL-1β, TNF-α and NO by using ELISA and Griess method.
Model preparation was same as that of example 4. Piperphentonamine acetate group was intraperitoneally injected with 0.5 mg/kg daily for 2 days 48 h before the injection of pertussis bacterial liquid. Rats in each group were decollated after being injected with bacterial liquid or saline 4 h. ELISA method and Griess method were used to measure the content of IL-1β, TNF-α and NO in brain homogenate of infectious brain edema model of rats.

[6] = test system: cerebral hemorrhage in rats induced by collagenase; test: ICH model induced by collagenase: brain water content (BWC); type: in vivo, Wistar rats
Protocol: Animals are randomly divided into five groups: sham operation 24 h group; cerebral hemorrhage (Intracerebral Haemorrhage, ICH)+physiological saline group (model); ICH+piperphentonamine hydrochloride (JBTA, 2 mg/kg) group, called as high dose group (h); ICH+piperphentonamine hydrochloride (JBTA, 0.5 mg/kg) group, called as low dose group (1); ICH+nimodipine (Nim, 0.5 mg/kg) group. The last four groups are divided into 4 h, 8 h, 12 h, 24 h as four time subgroups respectively. Physiological saline solution, piperphentonamine hydrochloride and nimodipine are intravenously injected from rat tail before the ICH model is established for 30 minutes, once a day. Injecting slowly, the total amount of drug liquid is controlled in 1 ml/200 g body weight: physiological saline solution also being administered in 1 ml/200 g body weight. Each group has 7 Wistar rats.
Observing the influence of piperphentonamine hydrochloride on the brain water content of intracerebral hemorrhage in rats in 4 h, 8 h, 12 h, 24 h, the animals of the different groups is anesthetized by chloral hydrate at predetermined time point, and decollating and taking the brain rapidly, putting the brain tissue on a filter paper wetted by saline solution to prevent water evaporating. Removing the leptomeninges and blood, cutting and taking the front half portion of brain tissue centered by the hole for the insertion needle, weighing precisely (accurate to 0.1 mg). It is controlled in 5 min to take the brain to finish weigh. Then putting in 95° C. constant temperature oven for 24 h, weighing the dry weight. The brain water content is calculated according to Blliot formula: BWC=(wet weight−dry weight)/wet weight×100%.
Divide the animals randomly into five groups: sham operation (sham) 24 h group; ICH+normal saline group (model); ICH+piperphentonamine maleate (4 mg/kg) group, namely high dose group (h); ICH+piperphentonamine maleate (2 mg/kg) group, namely low dose group (1); ICH+nimodipine (0.5 mg/kg) group. The last four groups were divided into four time subgroup of 4 h, 8 h, 12 h and 24 h. Physiological solution, piperphentonamine maleate and nimodipine were injected intravenous from rat tail vein 30 minutes before the ICH model made, once a day. Inject slowly, the total amount of drug liquid was controlled in 1 ml/200 g body weight: normal saline was also administered in 1 ml/200 g body weight. Each group has seven Wistar rats.

[7] = test system: cerebral hemorrhage in rats induced by collagenase; test: ICH model induced by collagenase: NE in brain tissue by ELISA; type: in vivo, Wistar rats
Excerpt: Rats in each group were anesthetized by chloral hydrate, decollated rapidly and the brains were taken out. The brain tissue around the hole was cut and procured, weighed precisely, and made into a 10% tissue homogenate using a glass homogenizer in an ice bath environment with physiological saline as homogenized medium, the supernatant of which was taken to be determined the NE activity using ELISA method.

Structure (SMILES): CN(CCC(=O)/C=C/c1ccc(O)cc1)CCc1ccc2c(c1)OCO2.Cl [piperphentonamine hydrochloride, Piperphentonamine hydrochloride]
- mortality ([1]; drug 10 mmol/L, hydrochloride): 38%
- mortality ([1]; drug 10 mmol/L, listed as JBTA2, hydrochloride): 38%
- mortality ([1]; drug 100 mmol/L, hydrochloride): 24%
- mortality ([1]; drug 100 mmol/L, listed as JBTA2, hydrochloride): 24%
- morphological change of culture neuron ([1]; drug 10): the degree of cell injury reduces significantly
- water content of cerebra (%) ([2]; 1 mg/kg iv): 82.05 ± 7.57 %
- water content of cerebra (%) ([2]; 2 mg/kg iv): 78.67 ± 5.38 %
- water content of cerebra (%) ([2]; 4 mg/kg iv): 75.43 ± 8.38 %
- Learning achievement Reaction time s ([3]; 1 mg/kg tail vein): 16.53 ± 11.75 s
- memory achievement latency s ([3]; 1 mg/kg tail vein): 249.84 ± 133.55 s
- memory achievement Error times ([3]; 1 mg/kg tail vein): 1.31 ± 0.58
- Learning achievement Error times ([3]; 1 mg/kg tail vein): 5.37 ± 3.63
- Learning achievement Reaction time s ([3]; 2 mg/kg tail vein): 13.34 ± 8.85 s
- memory achievement latency s ([3]; 2 mg/kg tail vein): 308.13 ± 97.73 s
- memory achievement Error times ([3]; 2 mg/kg tail vein): 0.73 ± 0.58
- Learning achievement Error times ([3]; 2 mg/kg tail vein): 5.08 ± 3.34
- Learning achievement Reaction time s ([3]; 4 mg/kg tail vein): 7.11 ± 4.06 s
- memory achievement latency s ([3]; 4 mg/kg tail vein): 352.79 ± 141.5 s
- memory achievement Error times ([3]; 4 mg/kg tail vein): 0.58 ± 1.45
- Learning achievement Error times ([3]; 4 mg/kg tail vein): 4.5 ± 3.05
- K^+ [4]: 436.3 ± 43.9
- Na^+ [4]: 181.1 ± 26.1
- water content of brain (%) [4]: 69.8 ± 0.44^3) %
- IL-1β [5]: 318.4 ± 43.8^2)3) pg/g
- NO [5]: 86.1 ± 5.9^2)3) nmol/g
- TNF-α [5]: 499.7 ± 134.9^2)3) pg/g
- brain water content (%) ([6]; 0.5 mg/kg iv 30 min before ICH, 4 h): 79.90 ± 0.84^Δ %
- brain water content (%) ([6]; 0.5 mg/kg iv 30 min before ICH, 8 h): 81.19 ± 0.78^ΔΔ %
- brain water content (%) ([6]; 0.5 mg/kg iv 30 min before ICH, 12 h): 82.70 ± 0.76^ΔΔ %
- brain water content (%) ([6]; 0.5 mg/kg iv 30 min before ICH, 24 h): 84.98 ± 0.65^ΔΔ %
- brain water content (%) ([6]; 2 mg/kg iv 30 min before ICH, 4 h): 79.29 ± 0.69 %
- brain water content (%) ([6]; 2 mg/kg iv 30 min before ICH, 8 h): 79.73 ± 0.53^Δ** %
- brain water content (%) ([6]; 2 mg/kg iv 30 min before ICH, 12 h): 80.75 ± 0.19^ΔΔ** %
- brain water content (%) ([6]; 2 mg/kg iv 30 min before ICH, 24 h): 82.38 ± 0.73^ΔΔ** %
- NE ([7]; 2 mg/kg, ICH rat brain tissue homogenate): 1.61 ± 0.044^a ng/ml
- brain tissue NE activity ([7]; high and low dose group (2, 0.5 mg/kg)): could decrease the brain tissue NE activity significantly
